In patent US4990497A, “Antifungal antibiotics” (priority 1989, dated 1991):
≈ marks a conversion by molar mass, not a printed value. Entries after “also recorded” stand apart in the source; their conditions may differ. Where two headings read alike, the source gives them in different places.

What was measured:
[1] = system: Candida albicans; test: Antifungal MIC, serial agar dilution (Sabouraud dextrose agar), Candida albicans; assay type: cell-based
[2] = system: Aspergillus fumigatus; test: Antifungal MIC, serial agar dilution (Sabouraud dextrose agar), Aspergillus fumigatus; assay type: cell-based
[3] = system: Trichophyton mentagrophytes; test: Antifungal MIC, serial agar dilution (Sabouraud dextrose agar), Trichophyton mentagrophytes; assay type: cell-based
[4] = system: Cryptococcus neoformans; test: Antifungal MIC, serial agar dilution (Sabouraud dextrose agar), Cryptococcus neoformans; assay type: cell-based
[5] = system: Piricularia oryzae; test: microbe, parasite or virus in culture; assay type: cell-based
[6] = system: Sporothrix schenckii; test: Antifungal MIC, serial agar dilution (Sabouraud dextrose agar), Sporothrix schenckii; assay type: cell-based
[7] = system: Fusarium moniliforme; test: Antifungal MIC, serial agar dilution (Sabouraud dextrose agar), Fusarium moniliforme; assay type: cell-based; conditions: Fusarium verticillioides
[8] = system: Candida albicans; test: Antifungal MIC, broth dilution (Sabouraud dextrose broth), Candida albicans
Protocol: (§1) The minimum inhibitory concentrations (MICs) against various fungi were determined by serial agar and broth dilution methods using Sabouraud dextrose agar and broth. The inoculum size of the test organism was adjusted to 10^5 CFUs/ml (BU-3608) or 10^5 -10^9 CFUs/ml (BU-3608 B and C) in the agar dilution method, and 10^4 -10^5 CFUs/ml (BU-3608) or 10^4 -10^6 CFUs/ml (BU-3608 B and C) in the broth dilution method.
(§2) ^(1) Determined after incubation for 72 hours at 28° C.
(§3) ^(2) Inoculum size: 10^5 CFU/ml for agar dilution and 10^4
-10^5 CFU/ml for broth dilution.
(§4) ^(3) Values in parenthesis indicate partial inhibition.
(§5) *Determined after incubation for 48-72 hours at 28° C.
(§6) **Inoculum size : 10^4 -10^6 CFU/ml for broth dilution and
10^5 -10^9 CFU/ml for agar dilution.
(§7) Values in parenthesis indicate partial inhibition.

[9] = system: Aspergillus fumigatus; test: Antifungal MIC, broth dilution (Sabouraud dextrose broth), Aspergillus fumigatus
Protocol: as §1, §2, §3
-10^5 CFU/ml for broth dilution.
as §4, §5, §6
10^5 -10^9 CFU/ml for agar dilution.
as §7

[10] = system: Trichophyton mentagrophytes; test: Antifungal MIC, broth dilution (Sabouraud dextrose broth), Trichophyton mentagrophytes
Protocol: as §1, §2, §3
-10^5 CFU/ml for broth dilution.
as §4, §5, §6
10^5 -10^9 CFU/ml for agar dilution.
as §7

[11] = system: Candida albicans A9540; test: In vivo antifungal activity, Candida albicans intravenous infection in mice; set-up: species or system mice (male ICR); conditions: for ED50: Candida albicans, read-out: PD50; for Number of survivors/tested: iv just after challenge
Protocol: The methyl and ethyl esters of BU-3608 were also evaluated against C. albicans A9540 infections in mice using the protocol described above. […] It is postulated that these esters are hydrolyzed in vivo to provide the active parent compound.

[12] = system: influenza virus A; test: Cytopathic effect (CPE) reduction assay, influenza virus A in MDCK cells; assay type: cell-based; conditions: unidentified influenza virus, 72 h, read-out: ID50 (CPE reduction)
[13] = in vitro; conditions: dog, mdck
[14] = system: Cryptococcus neoformans; test: Antifungal MIC, broth dilution (Sabouraud dextrose broth), Cryptococcus neoformans
Protocol: as §1, §2, §3
-10^5 CFU/ml for broth dilution.
as §4, §5, §6
10^5 -10^9 CFU/ml for agar dilution.
as §7

[15] = system: Cryptococcus neoformans IAM 4514; test: In vivo antifungal activity, Cryptococcus neoformans intravenous infection in mice; conditions: IAM4514, in Mus musculus, im, 480 h, read-out: PD50
Protocol: In vivo activities of BU-3608, BU-3608 B, and BU-3608 C were tested against Candida albicans, Aspergillus fumigatus, and Cryptococcus neoformans infections in mice. Test organisms were cultured for 18 hours at 28° C. in YGP medium (yeast extract, glucose, peptone, K2 HPO4, MgSO4) and then suspended in saline. Male ICR mice weighing 20 to 24 g were infected intravenously with about 20 times (BU-3608) or 10 times (BU-3608 B and C) the median lethal dose of the test fungi. The antibiotics at various dose levels were administered to groups of 5 mice each either intravenously just after the fungal infection or intramuscularly twice a day on days 0 and 1. The dose that protects 50% of the animals from infection (PD50, mg/kg) was calculated from survival rates recorded on the 20th day after the fungal challenge.
**Compounds were administered im b.i.d. on days 0 and 1.

[16] = Acute toxicity in mice; assay type: in vivo
Protocol: The acute toxicity of BU-3608 was determined in mice after single intravenous and intramuscular administrations.

[17] = Solubility; assay type: physicochemical; conditions: free form
[18] = in vitro; conditions: monkey, vero cells
[19] = system: Mucor spinosus; test: Antifungal MIC, serial agar dilution (Sabouraud dextrose agar), Mucor spinosus; conditions: IFO5317, 72 h
Protocol: as §1, §2

[20] = system: Aspergillus flavus; test: Antifungal MIC, serial agar dilution (Sabouraud dextrose agar), Aspergillus flavus; conditions: 72 h
Protocol: as §1, §2

[21] = system: Petriellidium boydii; test: Antifungal MIC, serial agar dilution (Sabouraud dextrose agar), Petriellidium boydii; conditions: Scedosporium boydii, IFO8073, 72 h
Protocol: as §1, §2

[22] = system: Blastomyces dermatitidis; test: Antifungal MIC, serial agar dilution (Sabouraud dextrose agar), Blastomyces dermatitidis; conditions: 72 h
Protocol: as §1, §2

[23] = Candida albicans A9540, 48-72 h at 28° C., 10^5-10^9 CFU/ml
[24] = Candida albicans IAM4888, 48-72 h at 28° C., 10^5-10^9 CFU/ml
[25] = Aspergillus fumigatus IAM2034, 48-72 h at 28° C., 10^5-10^9 CFU/ml
[26] = Aspergillus fumigatus IAM2530, 48-72 h at 28° C., 10^5-10^9 CFU/ml
[27] = Trichophyton mentagrophytes #4329, 48-72 h at 28° C., 10^5-10^9 CFU/ml
[28] = Trichophyton mentagrophytes D155, 48-72 h at 28° C., 10^5-10^9 CFU/ml
[29] = Cryptococcus neoformans D49, 48-72 h at 28° C., 10^5-10^9 CFU/ml
[30] = Cryptococcus neoformans IAM4514, 48-72 h at 28° C., 10^5-10^9 CFU/ml
[31] = Sporothrix schenckii IFO8158, 48-72 h at 28° C., 10^5-10^9 CFU/ml
[32] = Fusarium moniliforme A2284, 48-72 h at 28° C., 10^5-10^9 CFU/ml
[33] = read-out: MIC, partial inhibition (value in parenthesis)
[34] = IAM2034, read-out: MIC, partial inhibition (value in parenthesis)
[35] = dose 3.1 mg/kg/inj., day 20, challenge 20x (BU-3608) or 10x (B, C) median lethal dose
[36] = dose 6.3 mg/kg/inj., day 20, challenge 20x (BU-3608) or 10x (B, C) median lethal dose
[37] = dose 12.5 mg/kg/inj., day 20, challenge 20x (BU-3608) or 10x (B, C) median lethal dose
[38] = dose 25 mg/kg/inj., day 20, challenge 20x (BU-3608) or 10x (B, C) median lethal dose
[39] = dose 50 mg/kg/inj., day 20, challenge 20x (BU-3608) or 10x (B, C) median lethal dose

Work on `COc1cc(O)c2c(c1)C(=O)c1c(cc3c(c1O)-c1c(cc(C)c(C(=O)N[C@H](C)C(=O)O)c1O)C(O[C@@H]1O[C@H](C)[C@H](N)[C@H](O[C@@H]4OC[C@@H](O)[C@H](O)[C@H]4O)[C@H]1O)C3O)C2=O` (stereo partly shown) yielded an MIC [1, 23] of 6.3 µg/mL (≈ 7.62 µM), an MIC [1, 24] of 6.3 µg/mL (≈ 7.62 µM) and an MIC [2, 25] of 6.3 µg/mL (≈ 7.62 µM). The MIC [2, 26] was 3.1 µg/mL (≈ 3.75 µM), the MIC [3, 27] was 6.3 µg/mL (≈ 7.62 µM) and the MIC [3, 28] was 3.1 µg/mL (≈ 3.75 µM). For the same compound, the MIC [4, 29] was 0.8 µg/mL (≈ 0.968 µM), the MIC [4, 30] was 0.8 µg/mL (≈ 0.968 µM) and the MIC [5] was 3.1 µg/mL (≈ 3.75 µM). For the same compound, the MIC [6, 31] was 1.6 µg/mL (≈ 1.94 µM), the MIC [7, 32] was 6.3 µg/mL (≈ 7.62 µM) and the MIC [8] was 6.3 µg/mL (≈ 7.62 µM). For the same compound, the MIC [8, 33] was 3.1 µg/mL (≈ 3.75 µM), the MIC ([9]; IAM2034) was 6.3 µg/mL (≈ 7.62 µM) and the MIC [9, 34] was 3.1 µg/mL (≈ 3.75 µM). The MIC [10] was 6.3 µg/mL (≈ 7.62 µM) and the MIC [10, 33] was 1.3 µg/mL (≈ 1.57 µM).
Compound `CN[C@@H]1[C@H](O)[C@@H](O)[C@H](OC2c3cc(C)c(C(=O)N[C@H](C)C(=O)O)c(O)c3-c3c(cc4c(c3O)C(=O)c3cc(OC)cc(O)c3C4=O)C2O)O[C@@H]1C` (stereo partly shown) [BU-3608 B] has an MIC [1, 23] of 3.1 µg/mL (≈ 4.37 µM), an MIC [1, 24] of 1.6 µg/mL (≈ 2.26 µM) and an MIC [2, 25] of 6.3 µg/mL (≈ 8.89 µM). It also gave an MIC [2, 26] of 6.3 µg/mL (≈ 8.89 µM), an MIC [3, 27] of 6.3 µg/mL (≈ 8.89 µM) and an MIC [3, 28] of 6.3 µg/mL (≈ 8.89 µM). It also gave an MIC [4, 29] of 0.8 µg/mL (≈ 1.13 µM), an MIC [4, 30] of 0.8 µg/mL (≈ 1.13 µM) and an MIC ([5]; 48-72 h at 28° C., read-out: MIC) of 6.3 µg/mL (≈ 8.89 µM). For the same compound, the MIC [6, 31] was 3.1 µg/mL (≈ 4.37 µM), the MIC [7, 32] was over 100 µg/mL and the ED50 ([11]; A9540, im, 480 h) was 22 mg/kg. The ED50 ([11]; A9540, iv, 480 h) was 11 mg/kg, the Number of survivors/tested [11, 35] was 0/5 and the Number of survivors/tested [11, 36] was 0/5. The Number of survivors/tested [11, 37] was 3/5, the Number of survivors/tested [11, 38] was 3/5 and the Number of survivors/tested [11, 39] was 4/5. The IC50 [12] was 8.4 µg/mL (≈ 11.9 µM), the CC50 at 72 h [13] was over 100 µg/mL and the MIC [8] was 3.1 µg/mL (≈ 4.37 µM). For the same compound, the MIC [8, 33] was 3.1 µg/mL (≈ 4.37 µM), the MIC ([9]; IAM2034) was 50 µg/mL (≈ 70.6 µM) and the MIC [9, 34] was 12.5 µg/mL (≈ 17.6 µM). The MIC ([14]; IAM4514) was 1.6 µg/mL (≈ 2.26 µM), the ED50 [15] was 11 mg/kg and the MIC [10] was 6.3 µg/mL (≈ 8.89 µM). It also gave an MIC [10, 33] of 3.1 µg/mL (≈ 4.37 µM).
Work on `CN[C@@H]1[C@H](O[C@@H]2OC[C@@H](O)[C@H](O)[C@H]2O)[C@@H](O)[C@H](OC2c3cc(C)c(C(=O)N[C@H](C)C(=O)O)c(O)c3-c3c(cc4c(c3O)C(=O)c3cc(OC)cc(O)c3C4=O)C2O)O[C@@H]1C` (stereo partly shown) [BU-3608] yielded an MIC ([1]; Candida albicans A9540, 72 h at 28° C., 10^5 CFU/ml) of 25 µg/mL (≈ 29.7 µM), an MIC ([1]; Candida albicans IAM4888, 72 h at 28° C., 10^5 CFU/ml) of 25 µg/mL (≈ 29.7 µM) and an MIC ([2]; Aspergillus fumigatus IAM2034, 72 h at 28° C., 10^5 CFU/ml) of 3.1 µg/mL (≈ 3.69 µM). For the same compound, the MIC ([2]; Aspergillus fumigatus IAM2530, 72 h at 28° C., 10^5 CFU/ml) was 3.1 µg/mL (≈ 3.69 µM), the MIC ([3]; 72 h, Trichophyton mentagrophytes #4329, 72 h at 28° C., 10^5 CFU/ml) was 25 µg/mL (≈ 29.7 µM) and the MIC ([3]; 72 h, Trichophyton mentagrophytes D155, 72 h at 28° C., 10^5 CFU/ml) was over 100 µg/mL. It also gave an MIC ([4]; Cryptococcus neoformans D49, 72 h at 28° C., 10^5 CFU/ml) of 0.8 µg/mL (≈ 0.951 µM), an MIC ([4]; Cryptococcus neoformans IAM4514, 72 h at 28° C., 10^5 CFU/ml) of 0.8 µg/mL (≈ 0.951 µM) and an MIC ([5]; 72 h) of 3.1 µg/mL (≈ 3.69 µM). It also gave an MIC ([6]; Sporothrix schenckii IFO8158, 72 h at 28° C., 10^5 CFU/ml) of 0.8 µg/mL (≈ 0.951 µM), an MIC ([7]; Fusarium moniliforme A2284, 72 h at 28° C., 10^5 CFU/ml) of 3.1 µg/mL (≈ 3.69 µM) and an ED50 ([11]; A9540, 480 h, iv just after fungal challenge, day 20, challenge 20x (BU-3608) or 10x (B, C) median lethal dose) of 7.2 mg/kg. The Number of survivors/tested ([11]; dose 1.6 mg/kg/inj., day 20, challenge 20x median lethal dose) was 1/5, the Number of survivors/tested [11, 35] was 2/5 and the Number of survivors/tested [11, 36] was 2/5. The Number of survivors/tested [11, 37] was 5/5, the Number of survivors/tested [11, 38] was 5/5 and the Number of survivors/tested [11, 39] was 5/5. For the same compound, the IC50 [12] was 4.4 µg/mL (≈ 5.23 µM), the sign of toxicity ([16]; mice, single im dose of 400 mg/kg) was “no sign of toxicity” and the LD50 ([16]; mouse, in vivo, iv) was 140 mg/kg. For the same compound, the Solubility [17] was “Soluble in dimethyl sulfoxide, dimethyl formamide, acidic and alkaline water; also recorded: Slightly soluble in water, methanol, and ethanol; also recorded: Insoluble in ethyl acetate, chloroform, benzene, n-hexane, and petroleum ether”, the CC50 at 72 h [18] was over 100 µg/mL and the CC50 at 72 h [13] was over 100 µg/mL. The MIC ([8]; 72 h) was 6.3 µg/mL (≈ 7.49 µM), the MIC [19] was 50 µg/mL (≈ 59.5 µM) and the MIC ([9]; IAM2034, 72 h) was 12.5 µg/mL (≈ 14.9 µM). For the same compound, the MIC [20] was 1.6 µg/mL (≈ 1.9 µM), the MIC ([14]; IAM4514, 72 h) was 0.4 µg/mL (≈ 0.476 µM) and the ED50 [15] was 3.5 mg/kg. It also gave an MIC [21] of 100 µg/mL (≈ 119 µM), an MIC ([10]; 72 h) of 25 µg/mL (≈ 29.7 µM) and an MIC ([10]; 72 h, read-out: MIC, partial inhibition (value in parenthesis)) of 6.3 µg/mL (≈ 7.49 µM). The MIC [22] was 6.3 µg/mL (≈ 7.49 µM).
